# Columns and labels:
# Assay type in all cases: functional
# M14 = test: Growth inhibition of human M14 cells assessed as cell growth at 10^-8 M incubated for 48 hrs by sulforhodamine B assay relative to control; settings: M14, 48 h, read-out: Activity
# SK-MEL-5 = test: Growth inhibition of human SK-MEL-5 cells assessed as cell growth at 10^-8 M incubated for 48 hrs by sulforhodamine B assay relative to control; settings: SK-MEL-5, 48 h, read-out: Activity
# SW-620 [1] = test: Growth inhibition of human SW620 cells assessed as cell growth at 10^-5 M incubated for 48 hrs by sulforhodamine B assay relative to control; settings: SW-620, 48 h, read-out: Activity
# BT-549 = test: Cytotoxicity against human BT549 cells after 48 hrs by SRB assay; settings: BT-549, 48 h
# HOP-92 = test: Cytotoxicity against human HOP92 cells after 48 hrs by SRB assay; settings: HOP-92, 48 h
# HCC 2998 [2] = test: Growth inhibition of human HCC2998 cells assessed as cell growth at 10^-8 M incubated for 48 hrs by sulforhodamine B assay relative to control; settings: HCC 2998, 48 h, read-out: Activity
# TK-10 [3] = test: Growth inhibition of human TK10 cells assessed as cell growth at 10^-6 M incubated for 48 hrs by sulforhodamine B assay relative to control; settings: TK-10, 48 h, read-out: Activity
# UACC-62 [4] = test: Growth inhibition of human UACC62 cells assessed as cell growth at 10^-8 M incubated for 48 hrs by sulforhodamine B assay relative to control; settings: UACC-62, 48 h, read-out: Activity
# ACHN = test: Cytotoxicity against human ACHN cells after 48 hrs by SRB assay
# SW-620 [5] = test: Growth inhibition of human SW620 cells assessed as cell growth at 10^-4 M incubated for 48 hrs by sulforhodamine B assay relative to control; settings: SW-620, 48 h, read-out: Activity
# SK-MEL-2 = test: Growth inhibition of human SK-MEL-2 cells assessed as cell growth at 10^-7 M incubated for 48 hrs by sulforhodamine B assay relative to control; settings: SK-MEL-2, 48 h, read-out: Activity
# OVCAR-4 [6] = test: Growth inhibition of human OVCAR4 cells assessed as cell growth at 10^-5 M incubated for 48 hrs by sulforhodamine B assay relative to control; settings: OVCAR-4, 48 h, read-out: Activity
# TK-10 [7] = test: Growth inhibition of human TK10 cells assessed as cell growth at 10^-4 M incubated for 48 hrs by sulforhodamine B assay relative to control; settings: TK-10, 48 h, read-out: Activity
# OVCAR-4 [8] = test: Growth inhibition of human OVCAR4 cells assessed as cell growth at 10^-4 M incubated for 48 hrs by sulforhodamine B assay relative to control; settings: OVCAR-4, 48 h, read-out: Activity
# UACC-62 [9] = test: Growth inhibition of human UACC62 cells assessed as cell growth at 10^-5 M incubated for 48 hrs by sulforhodamine B assay relative to control; settings: UACC-62, 48 h, read-out: Activity
# SNB-75 = test: Cytotoxicity against human SNB75 cells after 48 hrs by SRB assay; settings: SNB-75, 48 h
# HT-29 = test: Growth inhibition of human HT-29 cells assessed as cell growth at 10^-8 M incubated for 48 hrs by sulforhodamine B assay relative to control; settings: HT-29, 48 h, read-out: Activity
# NCI-H322M = test: Growth inhibition of human NCI-H322M cells assessed as cell growth at 10^-5 M incubated for 48 hrs by sulforhodamine B assay relative to control; settings: read-out: Activity
# OVCAR-3 = test: Cytotoxicity against human OVCAR3 cells after 48 hrs by SRB assay; settings: OVCAR-3, 48 h
# 786-0 = test: Growth inhibition of human 786-0 cells assessed as cell growth at 10^-7 M incubated for 48 hrs by sulforhodamine B assay relative to control; settings: 786-0, 48 h, read-out: Activity
# EKVX = test: Growth inhibition of human EKVX cells assessed as cell growth at 10^-6 M incubated for 48 hrs by sulforhodamine B assay relative to control; settings: read-out: Activity
# NCI/ADR-RES = test: Growth inhibition of human NCI/ADR-RES cells assessed as cell growth at 10^-7 M incubated for 48 hrs by sulforhodamine B assay relative to control; settings: read-out: Activity
# SK-OV-3 = test: Cytotoxicity against human SKOV3 cells after 48 hrs by SRB assay; settings: SK-OV-3, 48 h
# Malme-3M [10] = test: Growth inhibition of human MALME-3M cells assessed as cell growth at 10^-8 M incubated for 48 hrs by sulforhodamine B assay relative to control; settings: read-out: Activity
# MDA-MB-435 = test: Growth inhibition of human MDA-MB-435 cells assessed as cell growth at 10^-5 M incubated for 48 hrs by sulforhodamine B assay relative to control; settings: MDA-MB-435, 48 h, read-out: Activity
# KM12 = test: Cytotoxicity against human KM12 cells after 48 hrs by SRB assay; settings: KM12, 48 h
# HCC 2998 [11] = test: Growth inhibition of human HCC2998 cells assessed as cell growth at 10^-7 M incubated for 48 hrs by sulforhodamine B assay relative to control; settings: HCC 2998, 48 h, read-out: Activity
# OVCAR-5 = test: Growth inhibition of human OVCAR5 cells assessed as cell growth at 10^-8 M incubated for 48 hrs by sulforhodamine B assay relative to control; settings: OVCAR-5, 48 h, read-out: Activity
# Malme-3M [12] = test: Growth inhibition of human MALME-3M cells assessed as cell growth at 10^-7 M incubated for 48 hrs by sulforhodamine B assay relative to control; settings: read-out: Activity
# UO-31 = test: Growth inhibition of human UO31 cells assessed as cell growth at 10^-7 M incubated for 48 hrs by sulforhodamine B assay relative to control; settings: UO-31, 48 h, read-out: Activity
# MDA-MB-231 = test: Growth inhibition of human MDA-MB-231 cells assessed as cell growth at 10^-6 M incubated for 48 hrs by sulforhodamine B assay relative to control; settings: MDA-MB-231, 48 h, read-out: Activity
# RPMI-8226 = test: Growth inhibition of human RPMI8226 cells assessed as cell growth at 10^-6 M incubated for 48 hrs by sulforhodamine B assay relative to control; settings: RPMI-8226, 48 h, read-out: Activity
# K562 = test: Growth inhibition of human K562 cells assessed as cell growth at 10^-8 M incubated for 48 hrs by sulforhodamine B assay relative to control; settings: K562, 48 h, read-out: Activity
# [13] = read-out: LC50 (the source's name)
smiles,measurement,setting,value
C#C[C@@]1(O)[C@@H](CO)O[C@@H](n2cc(F)c3c(N)ncnc32)[C@@H]1O,growth at 0.01 µM,M14,101%
same,growth at 0.01 µM,SK-MEL-5,92%
same,growth at 10 µM,SW-620 [1],-5%
same,CC50,BT-549; [13],> 100000 nM
same,TGI,BT-549; read-out: TGI,4180 nM
same,GI50,BT-549; read-out: pGI50 (converted),851 nM
same,TGI,BT-549; read-out: pTGI (converted),4170 nM
same,CC50,HOP-92; [13],> 100000 nM
same,GI50,HOP-92; read-out: pGI50 (converted),38 nM
same,growth at 0.01 µM,HCC 2998 [2],98%
same,growth at 1 µM,TK-10 [3],42%
same,growth at 0.01 µM,UACC-62 [4],94%
same,GI50,ACHN,240 nM
same,CC50,ACHN; [13],> 100000 nM
same,TGI,ACHN; read-out: TGI,> 100000 nM
same,TGI,ACHN; read-out: pTGI (converted),> 100000 nM
same,growth at 100 µM,SW-620 [5],-23%
same,growth at 0.1 µM,SK-MEL-2,101%
same,growth at 10 µM,OVCAR-4 [6],-3%
same,growth at 100 µM,TK-10 [7],-24%
same,growth at 100 µM,OVCAR-4 [8],-25%
same,growth at 10 µM,UACC-62 [9],-60%
same,TGI,SNB-75; read-out: TGI,2320 nM
same,GI50,SNB-75; read-out: pGI50 (converted),1020 nM
same,CC50,SNB-75; read-out: pLC50 (the source's name) (converted),5250 nM
same,TGI,SNB-75; read-out: pTGI (converted),2340 nM
same,growth at 0.01 µM,HT-29,96%
same,growth at 10 µM,NCI-H322M,-17%
same,CC50,OVCAR-3; [13],> 100000 nM
same,TGI,OVCAR-3; read-out: TGI,> 100000 nM
same,GI50,OVCAR-3; read-out: pGI50 (converted),1120 nM
same,TGI,OVCAR-3; read-out: pTGI (converted),> 100000 nM
same,growth at 0.1 µM,786-0,87%
same,growth at 1 µM,EKVX,43%
same,growth at 0.1 µM,NCI/ADR-RES,76%
same,CC50,SK-OV-3; [13],> 100000 nM
same,TGI,SK-OV-3; read-out: TGI,2090 nM
same,GI50,SK-OV-3; read-out: pGI50 (converted),288 nM
same,TGI,SK-OV-3; read-out: pTGI (converted),2090 nM
same,growth at 0.01 µM,Malme-3M [10],103%
same,growth at 10 µM,MDA-MB-435,-26%
same,CC50,KM12; [13],> 100000 nM
same,TGI,KM12; read-out: TGI,24900 nM
same,GI50,KM12; read-out: pGI50 (converted),501 nM
same,TGI,KM12; read-out: pTGI (converted),25100 nM
same,growth at 0.1 µM,HCC 2998 [11],97%
same,growth at 0.01 µM,OVCAR-5,96%
same,growth at 0.1 µM,Malme-3M [12],98%
same,growth at 0.1 µM,UO-31,104%
same,growth at 1 µM,MDA-MB-231,22%
same,growth at 1 µM,RPMI-8226,1%
same,growth at 0.01 µM,K562,100%
